Results taken from US20170204038A1, “3-(4-ISOBUTYL-2-METHYLPHENYL) PROPANAL AS PERFUME INGREDIENT” (Givaudan, S.A., priority 2013, published 2017).

Experiments:
fatty acid synthesis = conditions: in vitro; cited from earlier work
male rats [1] = conditions: cited from earlier work
glucose synthesis = conditions: in vitro; cited from earlier work
rat hepatocytes = test: In vitro metabolism study in rat hepatocytes in suspension (GC-MS / LC-MS); conditions: for Residual test compound: male, Sprague-Dawley, rat, 4 h, 100 μM
Description: In order to study in vitro metabolism in rat hepatocytes Lilial™ and the compound of the present invention are incubated in presence of rat hepatocytes in suspension. Decrease of Lilial™ and the compound of the present invention, and formation of the corresponding benzoic acid derivative may be analysed by GC-MS.
Cryopreserved hepatocytes from male rats (Sprague Dawley; Lifetechnologies) were defrozen, washed in Cyropreserved Hepatocytes Recovery Medium (CHRM; Lifetechnologies) and suspended in Williams E Medium (WEM; Lifetechnologies). Lilial™, or the compound of formula (I) (final concentration: 100 μM) were added to the cells (1×10^6 viable cells/ml) and suspensions were incubated up to 4 hours at 37° C. on a shaker in duplicate. Metabolism of testosterone was monitored as positive control. Decrease of the test compounds and formation of the corresponding benzoic acid derivative was determined by GC-MS analysis of methyl-esters formed after derivatisation with trimethylsilyl-diazomethane (Sigma-Aldrich) in methanol. The test compounds react with diazomethane yielding a methyl-ketone which was used for the quantification of Lilial™ and the compound of formula (I). Metabolism was stopped with ice cold 1 M HCl, samples were extracted with tert-butyl methyl ether (MTBE) and analysed by GC-MS. Incubations containing testosterone as control were also stopped with ice cold 1 M HCl, centrifuged to separate the cells, filtrated and the decrease of testosterone analysed by LC-MS. To quantify decrease of the test substances and formation of benzoic acid metabolites, calibration curves of reference materials (Lilial™ and the compound of formula (I), tert-butyl benzoic acid (Fluka) was prepared in hepatocyte incubation medium and analysed like the hepatocyte samples.

[2] = Odour Value (ratio of vapour pressure to detection threshold concentration)
Excerpt: The compound of formula (I) is a particularly impactful perfume ingredient. The impact that a perfume ingredient exerts is related to its Odour Value. Odour Value is the ratio of vapour pressure to detection threshold concentration.

mice = conditions: cited from earlier work
guinea-pigs = conditions: cited from earlier work
primates = conditions: cited from earlier work
dogs = conditions: dog, in vivo; cited from earlier work
male rats [3] = conditions: rat, in vivo; cited from earlier work

CC(C)(C)c1ccc(C(=O)O)cc1 [tert-butyl benzoic acid]
inhibition of fatty acid synthesis (fatty acid synthesis): inhibit
testicular effects (male rats [1]): cause testicular effects
inhibition of glucose synthesis (glucose synthesis): inhibit

C[C@]12CC[C@H]3[C@@H](CCC4=CC(=O)CC[C@@]43C)[C@@H]1CC[C@@H]2O [testosterone]
Decrease of testosterone (positive control) (rat hepatocytes; rat hepatocytes, LC-MS): rapid decrease

Cc1cc(CC(C)C)ccc1CCC=O [Compound of formula (I), 3-(4-isobutyl-2-methylphenyl)propanal]
Residual test compound (rat hepatocytes): 0 µM
Odour Value [2]: 559,071

CC(C=O)Cc1ccc(C(C)(C)C)cc1 (centres unmarked) [Lilial™, 3-(4-tert-butylphenyl)-2-methylpropanal]
Residual test compound (rat hepatocytes): 0 µM
effects in studies with mice (mice): No effects
effects in studies with guinea-pigs (guinea-pigs): No effects
effects in studies with primates (primates): No effects
toxic effects on the reproductive organs (dogs): toxic effects
Odour Value [2]: 32,978
toxic effects on the reproductive organs (male rats [3]): toxic effects

CC(C=O)Cc1ccc(C(C)C)cc1 (centres unmarked) [Cyclamen aldehyde, 3-p-cumenyl-2-methylpropionaldehyde]
Odour Value [2]: 21,986
